The test has as its target Pol Theta (1-894) (Homo sapiens (Human), UniProt O75417). As to the kind of experiment: Biochemical Pol Theta (1-894) ATPase IC50 assay (ADP-Glo, ssDNA substrate). The conditions noted are these: ADP-Glo assay with ssDNA substrate, room temperature. An outline of the steps:
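His-tagged human Pol Theta 1-894 from Sf9 baculovirus cells, 2× enzyme solution at 12.5 nM, assayed with ssDNA substrate at room temperature in 40 mM Tris pH 7.5, 20 mM MgCl2, 1 mM DTT, 0.01% BSA, 0.05% Tween-20.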
Chain of Pol Theta (1-894) (O75417 1-894): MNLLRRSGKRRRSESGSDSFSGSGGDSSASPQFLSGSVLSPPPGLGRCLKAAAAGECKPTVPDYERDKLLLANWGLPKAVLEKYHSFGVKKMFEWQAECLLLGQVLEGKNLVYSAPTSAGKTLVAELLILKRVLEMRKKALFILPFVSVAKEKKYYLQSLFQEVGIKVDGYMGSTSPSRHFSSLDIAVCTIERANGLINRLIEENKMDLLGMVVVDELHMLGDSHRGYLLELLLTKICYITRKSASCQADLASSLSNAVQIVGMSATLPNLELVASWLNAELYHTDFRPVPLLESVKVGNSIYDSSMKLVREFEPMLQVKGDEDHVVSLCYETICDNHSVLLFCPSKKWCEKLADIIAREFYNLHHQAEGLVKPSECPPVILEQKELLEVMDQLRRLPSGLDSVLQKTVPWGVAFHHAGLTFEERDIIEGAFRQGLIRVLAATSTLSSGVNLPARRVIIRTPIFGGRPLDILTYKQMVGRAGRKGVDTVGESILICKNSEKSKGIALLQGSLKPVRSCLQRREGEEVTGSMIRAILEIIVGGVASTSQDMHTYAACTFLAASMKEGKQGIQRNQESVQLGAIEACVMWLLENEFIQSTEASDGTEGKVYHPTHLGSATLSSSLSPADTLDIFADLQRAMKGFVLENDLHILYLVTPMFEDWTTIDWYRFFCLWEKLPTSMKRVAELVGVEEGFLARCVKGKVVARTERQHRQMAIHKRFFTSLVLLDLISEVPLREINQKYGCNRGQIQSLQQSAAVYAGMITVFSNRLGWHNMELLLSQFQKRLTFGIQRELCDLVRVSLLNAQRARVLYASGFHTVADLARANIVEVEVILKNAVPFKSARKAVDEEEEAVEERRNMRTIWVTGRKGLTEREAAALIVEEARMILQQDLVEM
`COc1ccc(C#N)cc1-c1cc(C)ncc1C(=O)Nc1nc2ccc(-c3ccc(OCCO)cc3)nc2s1` [Example 122, 4-(5-cyano-2-methoxyphenyl)-N-(5-(4-(2-hydroxyethoxy)phenyl)thiazolo[5,4-b]pyridin-2-yl)-6-methylnicotinamide] had an IC50 of 0.014 µM.

Take `COc1ccccc1-c1cnncc1C(=O)Nc1nc2ccc(-c3ccc(Cl)cc3C(F)(F)F)nc2s1` [Example 99, N-(5-(4-chloro-2-(trifluoromethyl)phenyl)thiazolo[5,4-b]pyridin-2-yl)-5-(2-methoxyphenyl)pyridazine-4-carboxamide]: the IC50 is 0.066 µM. The result for `COc1ccccc1-c1cnncc1C(=O)Nc1nc2ccc(-c3ccc(NC(C)=O)c(F)c3)nc2s1` [Example 142, N-(5-(4-acetamido-3-fluorophenyl)thiazolo[5,4-b]pyridin-2-yl)-5-(2-methoxyphenyl)pyridazine-4-carboxamide] reads 0.0054 µM.

On to `COc1ccc(C#N)cc1-c1cc(C)ncc1C(=O)Nc1nc2ccc(-c3ccc(C(=O)N(C)C)cc3)nc2s1` [Example 86, 4-(5-cyano-2-methoxyphenyl)-N-(5-(4-(dimethylcarbamoyl)phenyl)thiazolo[5,4-b]pyridin-2-yl)-6-methylnicotinamide], for which the IC50 was 0.0074 µM. For the compound `COc1ccccc1-c1cnncc1C(=O)Nc1nc2ccc(-c3cc(C)c(NC(C)=O)cc3C)nc2s1` [Example 141, N-(5-(4-acetamido-2,5-dimethylphenyl)thiazolo[5,4-b]pyridin-2-yl)-5-(2-methoxyphenyl)pyridazine-4-carboxamide], inhibition was half-maximal at 0.0031 µM (IC50). With `COc1ccc(C#N)cc1-c1cc(Cl)ncc1C(=O)Nc1nc2ccc(-c3ccc(C#N)cc3)nc2s1` [Example 33, 6-chloro-4-(5-cyano-2-methoxyphenyl)-N-(5-(4-cyanophenyl)thiazolo[5,4-b]pyridin-2-yl)nicotinamide] the figure was 0.0085 µM; with `COc1ccccc1-c1cnncc1C(=O)Nc1nc2ccc(-c3ccc(C#N)cc3)nc2s1` [Example 83, N-(5-(4-cyanophenyl)thiazolo[5,4-b]pyridin-2-yl)-5-(2-methoxyphenyl)pyridazine-4-carboxamide], 0.0062 µM; with `COc1ccc(C#N)cc1-c1cc(C)ncc1C(=O)Nc1nc2ccc(-c3ccc(NS(C)(=O)=O)c(F)c3)nc2s1` [Example 90, 4-(5-cyano-2-methoxyphenyl)-N-(5-(3-fluoro-4-(methylsulfonamido)phenyl)thiazolo[5,4-b]pyridin-2-yl)-6-methylnicotinamide], 0.0041 µM. `COc1ccccc1-c1cnncc1C(=O)Nc1nc2ccc(-c3ccc(C#N)nc3)nc2s1` [Example 144, N-(5-(6-cyanopyridin-3-yl)thiazolo[5,4-b]pyridin-2-yl)-5-(2-methoxyphenyl)pyridazine-4-carboxamide]: 0.011 µM corresponded to half-maximal inhibition (IC50). `COc1ccccc1-c1cnncc1C(=O)Nc1nc2ccc(-c3ccc(C(=O)N4CCOCC4)cc3)nc2s1` [Example 103, 5-(2-methoxyphenyl)-N-(5-(4-(morpholine-4-carbonyl)phenyl)thiazolo[5,4-b]pyridin-2-yl)pyridazine-4-carboxamide] came in with an IC50 of 0.083 µM. With `COc1ccccc1-c1cnncc1C(=O)Nc1nc2ccc(Cc3ccc(Cl)cc3)nc2s1` [Example 69, N-(5-(4-chlorobenzyl)thiazolo[5,4-b]pyridin-2-yl)-5-(2-methoxyphenyl)pyridazine-4-carboxamide] the figure was 0.045 µM; with `COc1ccccc1-c1cnncc1C(=O)Nc1nc2ccc(-c3ccc(Cl)cc3F)nc2s1` [Example 100, N-(5-(4-chloro-2-fluorophenyl)thiazolo[5,4-b]pyridin-2-yl)-5-(2-methoxyphenyl)pyridazine-4-carboxamide], 0.029 µM; with `Cc1cc(-c2cc(S(C)(=O)=O)ccc2C2CC2)c(C(=O)Nc2nc3ccc(-c4ccc(C#N)cc4)nc3s2)cn1` [Example 157, N-(5-(4-cyanophenyl)thiazolo[5,4-b]pyridin-2-yl)-4-(2-cyclopropyl-5-(methylsulfonyl)phenyl)-6-methylnicotinamide], 0.07 µM. `COc1ccc(C#N)cc1-c1cc(C)ncc1C(=O)Nc1nc2ccc(-c3ccc(C(N)=O)c(C)c3)nc2s1` [Example 110, N-(5-(4-carbamoyl-3-methylphenyl)thiazolo[5,4-b]pyridin-2-yl)-4-(5-cyano-2-methoxyphenyl)-6-methylnicotinamide]: the midpoint of inhibition, the IC50, lay at 0.0058 µM.

Compound `COc1cc(Cl)ccc1-c1ccc2nc(NC(=O)c3cnncc3-c3ccccc3OC)sc2n1` [Example 96, N-(5-(4-chloro-2-methoxyphenyl)thiazolo[5,4-b]pyridin-2-yl)-5-(2-methoxyphenyl)pyridazine-4-carboxamide] yielded an IC50 of 0.06 µM. Regarding `COc1ccc(C#N)cc1-c1cc(C)ncc1C(=O)Nc1nc2ccc(-c3ccc(C4CC4)cc3)nc2s1` [Example 20, 4-(5-cyano-2-methoxyphenyl)-N-(5-(4-cyclopropylphenyl)thiazolo[5,4-b]pyridin-2-yl)-6-methylnicotinamide], half-maximal inhibition (IC50) was put at 0.054 µM.

For the compound `COc1ccc(C#N)cc1-c1cc(C)ncc1C(=O)Nc1nc2ccc(-c3ccc(N4CCOCC4)cc3)nc2s1` [Example 59, 4-(5-cyano-2-methoxyphenyl)-6-methyl-N-(5-(4-morpholinophenyl)thiazolo[5,4-b]pyridin-2-yl)nicotinamide], the IC50 stood at 0.098 µM. The result for `COc1ccc(C#N)cc1-c1cnccc1C(=O)Nc1nc2ccc(-c3ccc(Cl)cc3)nc2s1` [Example 11, N-(5-(4-chlorophenyl)thiazolo[5,4-b]pyridin-2-yl)-3-(5-cyano-2-methoxyphenyl)isonicotinamide] reads 0.057 µM; that for `COCc1ccc(-c2ccc3nc(NC(=O)c4cnc(C)cc4-c4cc(C#N)ccc4OC)sc3n2)cc1` [Example 79, 4-(5-cyano-2-methoxyphenyl)-N-(5-(4-(methoxymethyl)phenyl)thiazolo[5,4-b]pyridin-2-yl)-6-methylnicotinamide], 0.041 µM. With `COc1ccccc1-c1cnncc1C(=O)Nc1nc2ccc(-c3ccc(N4COCC4=O)cc3)nc2s1` [Example 149, 5-(2-methoxyphenyl)-N-(5-(4-(4-oxooxazolidin-3-yl)phenyl)thiazolo[5,4-b]pyridin-2-yl)pyridazine-4-carboxamide] the figure was 0.018 µM; with `Cc1cc(-c2cc(C#N)c(=O)n(C)c2)c(C(=O)Nc2nc3ccc(-c4ccc(C#N)cc4)nc3s2)cn1` [Example 147, 5-cyano-N-(5-(4-cyanophenyl)thiazolo[5,4-b]pyridin-2-yl)-1,6′-dimethyl-6-oxo-1,6-dihydro-[3,4′-bipyridine]-3′-carboxamide], 0.053 µM; with `COc1ccccc1-c1cnncc1C(=O)Nc1nc2ccc(-c3ccc(Cl)cc3C)nc2s1` [Example 97, N-(5-(4-chloro-2-methylphenyl)thiazolo[5,4-b]pyridin-2-yl)-5-(2-methoxyphenyl)pyridazine-4-carboxamide], 0.027 µM. The compound `COc1ccccc1-c1cnncc1C(=O)Nc1nc2ccc(OC3CCCC3)nc2s1` [Example 114, N-(5-(cyclopentyloxy)thiazolo[5,4-b]pyridin-2-yl)-5-(2-methoxyphenyl)pyridazine-4-carboxamide] showed an IC50 of 0.099 µM. `COc1ccc(C#N)cc1-c1cc(C)ncc1C(=O)Nc1nc2ccc(-c3ccc(C#N)cc3C)nc2s1` [Example 169, 4-(5-cyano-2-methoxyphenyl)-N-(5-(4-cyano-2-methylphenyl)thiazolo[5,4-b]pyridin-2-yl)-6-methylnicotinamide]: the IC50 worked out at 0.0075 µM. In turn, `COc1ccccc1-c1cnncc1C(=O)Nc1nc2ccc(-c3c(C)cc(Cl)cc3Cl)nc2s1` [Example 150, N-(5-(2,4-dichloro-6-methylphenyl)thiazolo[5,4-b]pyridin-2-yl)-5-(2-methoxyphenyl)pyridazine-4-carboxamide] registered a half-inhibitory concentration (IC50) of 0.043 µM. In turn, `Cc1cc(-c2ccccc2CO)c(C(=O)Nc2nc3ccc(-c4ccc(C#N)cc4)nc3s2)cn1` [Example 64, N-(5-(4-cyanophenyl)thiazolo[5,4-b]pyridin-2-yl)-4-(2-(hydroxymethyl)phenyl)-6-methylnicotinamide] showed an IC50 of 0.186 µM. With `COc1ccc(C#N)cc1-c1cc(C)ncc1C(=O)Nc1nc2ccc(-c3ccc(C(F)(F)F)cc3)nc2s1` [Example 40, 4-(5-cyano-2-methoxyphenyl)-6-methyl-N-(5-(4-(trifluoromethyl)phenyl)thiazolo[5,4-b]pyridin-2-yl)nicotinamide] the figure was 0.087 µM; with `N#Cc1ccc(C(=O)Nc2nc3ccc(-c4ccc(Cl)cc4)nc3s2)c(N2CCNC(=O)C2)n1` [Example 13, N-(5-(4-chlorophenyl)thiazolo[5,4-b]pyridin-2-yl)-6-cyano-2-(3-oxopiperazin-1-yl)nicotinamide], 0.147 µM; with `COc1ccc(C#N)cc1-c1cc(C)ncc1C(=O)Nc1nc2ccc(-c3ccc(C#N)cn3)nc2s1` [Example 159, 4-(5-cyano-2-methoxyphenyl)-N-(5-(5-cyanopyridin-2-yl)thiazolo[5,4-b]pyridin-2-yl)-6-methylnicotinamide], 0.005 µM. With `COc1ccc(C#N)cc1-c1cc(C)ncc1C(=O)Nc1nc2ccc(-c3ccc(C#N)cc3)nc2s1` [Example 19, 4-(5-cyano-2-methoxyphenyl)-N-(5-(4-cyanophenyl)thiazolo[5,4-b]pyridin-2-yl)-6-methylnicotinamide] the figure was 0.0085 µM; with `COc1ccc(C#N)cc1-c1ccncc1C(=O)Nc1nc2ccc(-c3ccc(C#N)cc3)nc2s1` [Example 38, 4-(5-cyano-2-methoxyphenyl)-N-(5-(4-cyanophenyl)thiazolo[5,4-b]pyridin-2-yl)nicotinamide], 0.011 µM; with `COCc1ccc(OC)c(-c2cc(C)ncc2C(=O)Nc2nc3ccc(-c4ccc(NC(C)=O)cc4)nc3s2)c1` [Example 28, N-(5-(4-acetamidophenyl)thiazolo[5,4-b]pyridin-2-yl)-4-(2-methoxy-5-(methoxymethyl)phenyl)-6-methylnicotinamide], 0.256 µM.

By IC50 is commonly meant the midpoint of a concentration-inhibition curve. A high value points to a need for much substance.

(Values after patent US20250026766A1, “Thiazolopyridyl Amide Derivatives as DNA Polymerase Theta Inhibitors” (BeiGene, Ltd., priority 2022, published 2025).)
